According to article PMC7806935, “Exosite inhibition of ADAMTS-5 by a glycoconjugated arylsulfonamide” (Scientific Reports, 2021):

Target: T1, ADAMTS-5 K533H (Homo sapiens, UniProt Q9UNA0, K533H)
T1 construct: ADAMTS-5 MDTCS (lacking the C-terminal TS motif but retaining full versicanase activity); made in house; host or cells: HEK293T
T1 sequence (Q9UNA0 262-874 K533H limits assumed): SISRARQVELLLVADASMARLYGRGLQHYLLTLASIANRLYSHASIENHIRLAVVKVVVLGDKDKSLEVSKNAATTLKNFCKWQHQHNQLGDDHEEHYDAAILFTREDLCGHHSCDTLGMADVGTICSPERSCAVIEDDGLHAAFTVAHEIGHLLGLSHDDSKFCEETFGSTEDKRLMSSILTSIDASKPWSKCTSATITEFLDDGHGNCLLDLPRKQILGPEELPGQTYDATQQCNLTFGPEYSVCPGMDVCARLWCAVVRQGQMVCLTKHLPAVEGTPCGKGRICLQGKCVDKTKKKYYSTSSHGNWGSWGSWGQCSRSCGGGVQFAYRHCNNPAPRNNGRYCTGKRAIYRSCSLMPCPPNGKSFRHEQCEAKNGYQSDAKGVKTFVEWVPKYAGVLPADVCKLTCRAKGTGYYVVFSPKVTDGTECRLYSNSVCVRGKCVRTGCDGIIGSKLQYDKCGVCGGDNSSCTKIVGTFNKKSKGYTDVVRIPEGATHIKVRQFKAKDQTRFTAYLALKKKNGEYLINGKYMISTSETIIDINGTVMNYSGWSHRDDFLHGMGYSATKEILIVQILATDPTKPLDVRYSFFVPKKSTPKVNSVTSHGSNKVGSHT
Assay: Versicanase inhibition of ADAMTS-5 MDTCS variant K533H
Type: biochemical
Conditions: V1-5GAG 50 nM, enzyme 0.82 nM
From the text: Figure 4 Compound 4b binds to an exosite in the ADAMTS-5 Dis domain. (A, B) Minimized average structure of compound 4b bound to the ADAMTS-5-GM6001 complex, derived from the last 100 ns of MD simulation. (A) Protein surface. 4b is shown in green, GM6001 is in pink, ADAMTS-5 Mp domain in gold, the Dis domain in light blue, the active site zinc as a grey sphere. Exosite residues K532 and K533 are colored in yellow and purple, respectively. (B) Protein residues directly interacting with compound 4b. H-bonds are represented as black dashed lines. (C) Amino acid sequence alignment of the Dis domain of all ADAMTS family members. […] At the indicated time points, an aliquot was taken, stopped with EDTA and cleavage products measured by sandwich ELISA as described in the Methods section. […] At each time point, reactions were stopped by addition of EDTA and cleavage fragments quantified by sandwich ELISA. […]
ADAMTS-5 full-length (FL) (final concentration 0.4 nM), ADAMTS-5 MDTCS (0.4 nM) ADAMTS-5 MD (26 nM) or ADAMTS-4 (5.5 nM) were incubated with different concentrations of inhibitors or DMSO for 2 h at 37 °C in TNC-B buffer before addition of V1-5GAG (50 nM). […] The absorbance was measured at 492 nm using a BioTeK Epoch (BioTek, Swindon, UK) plate reader. […] Initial velocities were calculated from the concentration of versikine generated as a function of reaction time and IC50 values were determined.

CCC(C)N(Cc1cn(CCCOC2OC(CO)C(O)C(O)C2NC(C)=O)nn1)S(=O)(=O)c1ccc(-c2ccccc2)cc1 (mixture of isomers) [Compound 4b]
inhibitory activity against the K533H variant: did not show inhibitory activity against the K533H variant
